Measurements: US20100298141A1, “SUBSTITUTED PYRIDINE N-OXIDE HERBICIDES” (E. I. DU PONT DE NEMOURS AND COMPANY, priority 2007, published 2010)

Assays:
giant foxtail [1] = assay: Test A pre-/postemergence greenhouse test; type: in vivo, Setaria faberi; conditions: for Foxtail, Giant plant response rating: 0 to 100 scale
In short: (§1)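 Pots of loam–sand soil sown with the test species are sprayed preemergence on the soil surface; emerged seedlings (1–2 leaves, 2–10 cm) are sprayed postemergence at the same time. The vehicle is a non-phytotoxic solvent mixture with surfactant. Injury is scored visually after ~10 d in greenhouse.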

woolly cupgrass = assay: Test C pre-/postemergence test; type: in vivo, Eriochloa villosa; conditions: for Plant response rating, Cupgrass, Woolly: scale 0 to 100, 0 no effect, 100 complete control
In short: (§2)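 Test chemicals were formulated with surfactant in a non-phytotoxic solvent and sprayed both on freshly planted seeds (preemergence) and on 1- to 4-leaf plants of 2–18 cm (postemergence). Flooded-paddy pots received compound directly into 3 cm of standing water, maintained for the test.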

cocklebur = assay: Test C pre-/postemergence test; type: in vivo, Xanthium strumarium; conditions: for Plant response rating, Cocklebur: scale 0 to 100, 0 no effect, 100 complete control
In short: as §2

wild oat = assay: Test C pre-/postemergence test; type: in vivo, Avena fatua; conditions: for Plant response rating, Oat, Wild: scale 0 to 100, 0 no effect, 100 complete control
In short: as §2

wheat [2] = assay: Test A pre-/postemergence greenhouse test; type: in vivo, Triticum aestivum; conditions: for Wheat plant response rating: 0 to 100 scale
In short: as §1

lambsquarters = assay: Test C pre-/postemergence test; type: in vivo, Chenopodium album; conditions: for Plant response rating, Lambsquarters: scale 0 to 100, 0 no effect, 100 complete control
In short: as §2

eastern black nightshade = assay: Test C pre-/postemergence test; type: in vivo, Solanum ptycanthum
In short: as §2

blackgrass = assay: Test C pre-/postemergence test; type: in vivo, Alopecurus myosuroides; conditions: for Plant response rating, Blackgrass: scale 0 to 100, 0 no effect, 100 complete control
In short: as §2

wheat [3] = assay: Test C pre-/postemergence test; type: in vivo, Triticum aestivum; conditions: for Wheat plant response rating: preemergence, scale 0 (no effect) to 100 (complete control); for Plant response rating, Wheat: scale 0 to 100, 0 no effect, 100 complete control
In short: as §2

[4] = system: common (oilseed) sunflower; assay: Test C pre-/postemergence test; type: in vivo, Helianthus annuus; conditions: for Sunflower plant response rating: preemergence, scale 0 (no effect) to 100 (complete control)
In short: as §2

morningglory = assay: Test A pre-/postemergence greenhouse test; type: in vivo, Ipomoea spp.; conditions: for Morningglory plant response rating: 0 to 100 scale
In short: as §1

velvetleaf = assay: Test C pre-/postemergence test; type: in vivo, Abutilon theophrasti; conditions: Postemergence; for Plant response rating, Velvetleaf: scale 0 to 100, 0 no effect, 100 complete control
In short: as §2

redroot pigweed = assay: Test A pre-/postemergence greenhouse test; type: in vivo, Amaranthus retroflexus; conditions: for Pigweed plant response rating: 0 to 100 scale
In short: as §1

giant foxtail [5] = assay: Test C pre-/postemergence test; type: in vivo, Setaria faberii; conditions: for Plant response rating, Foxtail, Giant: scale 0 to 100, 0 no effect, 100 complete control
In short: as §2

Surinam grass = assay: Test C pre-/postemergence test; type: in vivo, Brachiaria decumbens; conditions: for Surinam Grass plant response rating: preemergence, scale 0 (no effect) to 100 (complete control); for Plant response rating, Surinam Grass: scale 0 to 100, 0 no effect, 100 complete control
In short: as §2

downy brome = assay: Test C pre-/postemergence test; type: in vivo, Bromus tectorum; conditions: for Plant response rating, Bromegrass, Downy: scale 0 to 100, 0 no effect, 100 complete control
In short: as §2

common ragweed = assay: Test C pre-/postemergence test; type: in vivo, Ambrosia elation; conditions: for Plant response rating, Ragweed: scale 0 to 100, 0 no effect, 100 complete control
In short: as §2

kochia = assay: Test C pre-/postemergence test; type: in vivo, Kochia scoparia; conditions: for Plant response rating, Kochia: scale 0 to 100, 0 no effect, 100 complete control
In short: as §2

catchweed bedstraw = assay: Test C pre-/postemergence test; type: in vivo, Galium aparine
In short: as §2

[6] = Postemergence, 125 g ai/ha, 0 is no effect, 100 is complete control
[7] = Postemergence, 500 g ai/ha, 0 is no effect, 100 is complete control
[8] = Preemergence, 125 g ai/ha, 0 no effect, 100 complete control
[9] = Preemergence, 500 g ai/ha, 0 to 100 scale where 0 is no effect and 100 is complete control
[10] = 31 g ai/ha, Preemergence, scale 0 to 100
[11] = 62 g ai/ha, preemergence, scale 0 (no effect) to 100 (complete control)
[12] = preemergence, 125 g ai/ha, scale 0 (no effect) to 100 (complete control)

Compound: Cn1nc(C(F)(F)F)c(C[S+]([O-])c2cccc[n+]2[O-])c1OC(F)F (stereo not drawn) [Compound 3]
- Foxtail, Giant plant response rating (giant foxtail [1]; [6]): 80
- Foxtail, Giant plant response rating (giant foxtail [1]; [7]): 90
- Foxtail, Giant plant response rating (giant foxtail [1]; [8]): 100
- Plant response rating, Foxtail, Giant (giant foxtail [1]; [9]): 100
- Cupgrass, Woolly plant response rating (woolly cupgrass; [10]): 60
- Cupgrass, Woolly plant response rating (woolly cupgrass; [11]): 60
- Plant response rating (0 to 100), Cupgrass, Woolly (woolly cupgrass; Postemergence, 31 g ai/ha): 0
- Plant response rating, Cupgrass, Woolly (woolly cupgrass; Postemergence, 62 g ai/ha): 0
- Plant response rating, Cupgrass, Woolly (woolly cupgrass; Postemergence, 125 g ai/ha): 20
- Plant response rating, Cupgrass, Woolly (woolly cupgrass; Postemergence, 250 g ai/ha): 40
- Plant response rating (0 to 100), Cupgrass, Woolly (woolly cupgrass; Preemergence, 250 g ai/ha): 100
- Cupgrass, Woolly plant response rating (woolly cupgrass; [12]): 85
- Cocklebur plant response rating (cocklebur; [10]): 0
- Cocklebur plant response rating (cocklebur; [11]): 0
- Plant response rating (0 to 100), Cocklebur (cocklebur; Postemergence, 31 g ai/ha): 0
- Plant response rating, Cocklebur (cocklebur; Postemergence, 62 g ai/ha): 0
- Plant response rating, Cocklebur (cocklebur; Postemergence, 125 g ai/ha): 0
- Plant response rating, Cocklebur (cocklebur; Postemergence, 250 g ai/ha): 10
- Plant response rating (0 to 100), Cocklebur (cocklebur; Preemergence, 250 g ai/ha): 5
- Cocklebur plant response rating (cocklebur; [12]): 0
- Oat, Wild plant response rating (wild oat; [10]): 30
- Oat, Wild plant response rating (wild oat; [11]): 40
- Plant response rating (0 to 100), Oat, Wild (wild oat; Postemergence, 31 g ai/ha): 0
- Plant response rating, Oat, Wild (wild oat; Postemergence, 62 g ai/ha): 0
- Plant response rating, Oat, Wild (wild oat; Postemergence, 125 g ai/ha): 0
- Plant response rating, Oat, Wild (wild oat; Postemergence, 250 g ai/ha): 0
- Plant response rating (0 to 100), Oat, Wild (wild oat; Preemergence, 250 g ai/ha): 100
- Oat, Wild plant response rating (wild oat; [12]): 80
- Wheat plant response rating (wheat [2]; [6]): 60
- Wheat plant response rating (wheat [2]; [7]): 70
- Wheat plant response rating (wheat [2]; [8]): 60
- Plant response rating, Wheat (wheat [2]; [9]): 100
- Lambsquarters plant response rating (lambsquarters; [10]): 98
- Lambsquarters plant response rating (lambsquarters; [11]): 100
- Plant response rating (0 to 100), Lambsquarters (lambsquarters; Postemergence, 31 g ai/ha): 10
- Plant response rating, Lambsquarters (lambsquarters; Postemergence, 62 g ai/ha): 15
- Plant response rating, Lambsquarters (lambsquarters; Postemergence, 125 g ai/ha): 20
- Plant response rating, Lambsquarters (lambsquarters; Postemergence, 250 g ai/ha): 20
- Plant response rating (0 to 100), Lambsquarters (lambsquarters; Preemergence, 250 g ai/ha): 100
- Lambsquarters plant response rating (lambsquarters; [12]): 100
- Nightshade plant response rating (eastern black nightshade; [10]): 85
- Nightshade plant response rating (eastern black nightshade; [11]): 98
- Plant response rating (0 to 100), Nightshade (eastern black nightshade; Preemergence, 250 g ai/ha): 100
- Nightshade plant response rating (eastern black nightshade; [12]): 98
- Blackgrass plant response rating (blackgrass; [10]): 70
- Blackgrass plant response rating (blackgrass; [11]): 70
- Plant response rating (0 to 100), Blackgrass (blackgrass; Postemergence, 31 g ai/ha): 0
- Plant response rating, Blackgrass (blackgrass; Postemergence, 62 g ai/ha): 0
- Plant response rating, Blackgrass (blackgrass; Postemergence, 125 g ai/ha): 0
- Plant response rating, Blackgrass (blackgrass; Postemergence, 250 g ai/ha): 20
- Plant response rating (0 to 100), Blackgrass (blackgrass; Preemergence, 250 g ai/ha): 100
- Blackgrass plant response rating (blackgrass; [12]): 100
- Wheat plant response rating (wheat [3]; 62 g ai/ha): 20
- Plant response rating (0 to 100), Wheat (wheat [3]; Postemergence, 31 g ai/ha): 0
- Plant response rating (0 to 100), Wheat (wheat [3]; Postemergence, 62 g ai/ha): 0
- Plant response rating, Wheat (wheat [3]; Postemergence, 125 g ai/ha): 0
- Plant response rating, Wheat (wheat [3]; Postemergence, 250 g ai/ha): 0
- Plant response rating (0 to 100), Wheat (wheat [3]; Preemergence, 250 g ai/ha): 80
- Wheat plant response rating (wheat [3]; 125 g ai/ha): 70
- Sunflower plant response rating ([4]; 62 g ai/ha): 15
- Plant response rating (0 to 100), Sunflower ([4]; Preemergence, 250 g ai/ha): 95
- Sunflower plant response rating ([4]; 125 g ai/ha): 70
- Morningglory plant response rating (morningglory; [6]): 70
- Morningglory plant response rating (morningglory; [7]): 90
- Morningglory plant response rating (morningglory; [8]): 80
- Plant response rating, Morningglory (morningglory; [9]): 100
- Plant response rating (0 to 100), Velvetleaf (velvetleaf; 31 g ai/ha): 10
- Plant response rating (0 to 100), Velvetleaf (velvetleaf; 62 g ai/ha): 10
- Plant response rating, Velvetleaf (velvetleaf; 125 g ai/ha): 60
- Plant response rating, Velvetleaf (velvetleaf; 250 g ai/ha): 65
- Pigweed plant response rating (redroot pigweed; [6]): 80
- Pigweed plant response rating (redroot pigweed; [7]): 90
- Pigweed plant response rating (redroot pigweed; [8]): 100
- Plant response rating, Pigweed (redroot pigweed; [9]): 100
- Foxtail, Giant plant response rating (giant foxtail [5]; [10]): 60
- Foxtail, Giant plant response rating (giant foxtail [5]; [11]): 90
- Plant response rating (0 to 100), Foxtail, Giant (giant foxtail [5]; Postemergence, 31 g ai/ha): 0
- Plant response rating, Foxtail, Giant (giant foxtail [5]; Postemergence, 62 g ai/ha): 40
- Plant response rating, Foxtail, Giant (giant foxtail [5]; Postemergence, 125 g ai/ha): 50
- Plant response rating, Foxtail, Giant (giant foxtail [5]; Postemergence, 250 g ai/ha): 55
- Plant response rating (0 to 100), Foxtail, Giant (giant foxtail [5]; Preemergence, 250 g ai/ha): 100
- Foxtail, Giant plant response rating (giant foxtail [5]; [12]): 98
- Surinam Grass plant response rating (Surinam grass; 62 g ai/ha): 100
- Plant response rating (0 to 100), Surinam Grass (Surinam grass; Postemergence, 31 g ai/ha): 0
- Plant response rating (0 to 100), Surinam Grass (Surinam grass; Postemergence, 62 g ai/ha): 0
- Plant response rating, Surinam Grass (Surinam grass; Postemergence, 125 g ai/ha): 50
- Plant response rating, Surinam Grass (Surinam grass; Postemergence, 250 g ai/ha): 55
- Plant response rating (0 to 100), Surinam Grass (Surinam grass; Preemergence, 250 g ai/ha): 100
- Surinam Grass plant response rating (Surinam grass; 125 g ai/ha): 100
- Bromegrass, Downy plant response rating (downy brome; [10]): 0
- Bromegrass, Downy plant response rating (downy brome; [11]): 60
- Plant response rating (0 to 100), Bromegrass, Downy (downy brome; Postemergence, 31 g ai/ha): 0
- Plant response rating, Bromegrass, Downy (downy brome; Postemergence, 62 g ai/ha): 0
- Plant response rating, Bromegrass, Downy (downy brome; Postemergence, 125 g ai/ha): 0
- Plant response rating, Bromegrass, Downy (downy brome; Postemergence, 250 g ai/ha): 0
- Plant response rating (0 to 100), Bromegrass, Downy (downy brome; Preemergence, 250 g ai/ha): 100
- Bromegrass, Downy plant response rating (downy brome; [12]): 98
- Ragweed plant response rating (common ragweed; [10]): 100
- Ragweed plant response rating (common ragweed; [11]): 100
- Plant response rating (0 to 100), Ragweed (common ragweed; Postemergence, 31 g ai/ha): 5
- Plant response rating (0 to 100), Ragweed (common ragweed; Postemergence, 62 g ai/ha): 5
- Plant response rating, Ragweed (common ragweed; Postemergence, 125 g ai/ha): 50
- Plant response rating, Ragweed (common ragweed; Postemergence, 250 g ai/ha): 50
- Plant response rating (0 to 100), Ragweed (common ragweed; Preemergence, 250 g ai/ha): 100
- Ragweed plant response rating (common ragweed; [12]): 100
- Kochia plant response rating (kochia; [10]): 80
- Kochia plant response rating (kochia; [11]): 100
- Plant response rating (0 to 100), Kochia (kochia; Postemergence, 31 g ai/ha): 5
- Plant response rating, Kochia (kochia; Postemergence, 62 g ai/ha): 5
- Plant response rating, Kochia (kochia; Postemergence, 125 g ai/ha): 10
- Plant response rating, Kochia (kochia; Postemergence, 250 g ai/ha): 10
- Plant response rating (0 to 100), Kochia (kochia; Preemergence, 250 g ai/ha): 100
- Kochia plant response rating (kochia; [12]): 100
- Galium plant response rating (catchweed bedstraw; [10]): 0
- Galium plant response rating (catchweed bedstraw; [11]): 0
- Plant response rating (0 to 100), Galium (catchweed bedstraw; Preemergence, 250 g ai/ha): 100
- Galium plant response rating (catchweed bedstraw; [12]): 95
